Key:
[1] = target: T1, IN strand transfer activity (full-length HIV-1 IN) (Human immunodeficiency virus type 1 group M subtype B, UniProt P12497); assay: IN strand transfer radioactive assay; assay type: biochemical
T1 construct: were carried out at 37°C with the full-length HIV-1 IN
Excerpt: (§1) Sequences of the different oligonucleotides (ODN) substrates are U5B: 5′-[…]-3′, U5A: 5′- […]-3′ and U5B-2: 5′-[…]-3′. ODNs were purchased from Eurogentec and further purified by electrophoresis in a denaturing 16% acrylamide/urea gel. For activity assays, ODNs (U5B and U5B-2) were radiolabelled with T4 polynucleotide kinase (New England Biolabs) and γ[^32-P]ATP (3000 Ci/mmol) (Amersham), and purified on a Sephadex G-10 column (GE Healthcare). Double-stranded ODNs (U5B with U5A and U5B-2 with U5A used for 3′-processing and strand transfer reactions, respectively) were obtained by mixing equimolar amounts of complementary strands in the presence of 100 mM NaCl.
(§2) IN activity assays – 3′-processing, strand transfer – were carried out at 37°C with the full-length HIV-1 IN, in a buffer containing 10 mM HEPES (pH 7.2), 1 mM DTT, 7.5 mM MgCl2 in the presence of 6.25 nM DNA (3′-processing) or 12.5 nM DNA (strand transfer) as described previously. For negative control, 100 mM Na2EDTA was added to the reaction before incubation. Products were separated by electrophoresis in denaturing 16% acrylamide/urea gels. Gels were analysed with a Molecular Dynamics STORM phosphoimager and quantified with ImageQuant™ 4.1 software.

[2] = target: T2, IN 3′ processing activity (Human immunodeficiency virus type 1 group M subtype B, UniProt P12497); assay: IN 3′ processing radioactive assay; assay type: biochemical, HIV-1; conditions: at 100 nM
T2 construct: were carried out at 37°C with the full-length HIV-1 IN
Excerpt: as §1, §2

[3] = target: His6-IN A128T (HIV-1 NL4-3 integrase mutant A128T) (HIV-1 NL4-3); assay: SEC; Superdex 200 10/300 GL, 0.4 mL/min, 50 mM HEPES pH 7.5, 1 M NaCl, 7 mM CHAPS, 5 mM MgCl2, 10 mM DTT, 10% glycerol, room temperature; His6-IN wt 21 uM or His6-IN A128T 40 uM incubated for 10 min with 100 uM BI-D or Mut101 before injection
[4] = target: His6-IN A128T (HIV-1 NL4-3 integrase mutant A128T) (HIV-1 NL4-3); assay: SEC; Superdex 200 10/300 GL, 0.4 mL/min, 50 mM HEPES pH 7.5, 1 M NaCl, 7 mM CHAPS, 5 mM MgCl2, 10 mM DTT, 10% glycerol, room temperature; His6-IN wt 21 uM or His6-IN A128T 40 uM; no compound

## C[C@@H]1CCO[C@H]2Cn3cc(C(=O)NCc4ccc(F)cc4F)c(=O)c(O)c3C(=O)N12 [DTG, Dolutegravir, reference compound]
[1]
  IC50: 2.7 nM
[2]
  inhibition at 0.1 µM: 16%

## His6-IN A128T (HIV-1 NL4-3 integrase mutant A128T) (enzyme)
[3]
  stoichiometry N: 4
[4]
  stoichiometry N: 2

From publication PMC4222603, “Dual inhibition of HIV-1 replication by integrase-LEDGF allosteric inhibitors is predominant at the post-integration stage” (Retrovirology, 2013)
